# According to ChEMBL document CHEMBL1157232, “Wortmannilactones A-D, 22-membered triene macrolides from Talaromyces wortmannii” (J Nat Prod, 2006):
# Experiments:
# B16-F10 = experiment: Cytotoxicity against mouse B16-F10 cells; type: functional, cell-based
# Human alphaherpesvirus 1 = experiment: Antiviral activity against Herpes simplex virus 1; type: functional, organism-based
# Human alphaherpesvirus 2 = experiment: Antiviral activity against Herpes simplex virus 2; type: functional, organism-based
# [1] = Cytotoxicity against human HCT5 cells; type: functional, cell-based
# [2] = Cytotoxicity against human HCT115 cells; type: functional, cell-based
# A549 = experiment: Cytotoxicity against human A549 cells; type: functional, cell-based
# MDA-MB-231 = experiment: Cytotoxicity against human MDA-MB-231 cells; type: functional, cell-based
# K562 = experiment: Cytotoxicity against human K562 cells; type: functional, cell-based
compound,measurement,setting,value
C[C@@H]1CCC/C=C/C=C/[C@H](O)C[C@@H](O)C/C=C\C=C\[C@@H](O)C/C=C/C=C\C(=O)O1 [MACROLACTIN A],IC50,B16-F10,3.5 µg/mL
same,IC50,Human alphaherpesvirus 1,5 µg/mL
same,IC50,Human alphaherpesvirus 2,8.3 µg/mL
CC(O)CC1C/C=C/C=C/C=C/C(O)CC(O)CC(O)C/C=C/C=C/C=C/C(=O)O1 (stereo not drawn) [WORTMANNILACTONE A],IC50,[1],28.7 µM
same,IC50,[2],35 µM
same,IC50,A549,76.5 µM
same,IC50,MDA-MB-231,108 µM
same,IC50,K562,65.7 µM
COC1/C=C/C=C/C=C/CC(CC(C)O)OC(=O)/C=C/C=C/C=C/CC(O)CC(O)C1 (stereo not drawn) [WORTMANNILACTONE B],IC50,[1],32.4 µM
same,IC50,[2],41.7 µM
same,IC50,A549,104 µM
same,IC50,MDA-MB-231,95.6 µM
same,IC50,K562,116 µM
CC(O)CC1CC(O)/C=C/C=C/C=C/CC(O)CC(O)C/C=C/C=C/C=C/C(=O)O1 (stereo not drawn) [WORTMANNILACTONE C],IC50,[1],56.3 µM
same,IC50,[2],52.4 µM
same,IC50,A549,118 µM
same,IC50,MDA-MB-231,120 µM
same,IC50,K562,130 µM
COC1/C=C/C=C/C=C/CC(O)CC(O)C/C=C/C=C/C=C/C(=O)OC(CC(C)O)C1 (stereo not drawn) [WORTMANNILACTONE D],IC50,[1],46.3 µM
same,IC50,[2],44.7 µM
same,IC50,A549,116 µM
same,IC50,MDA-MB-231,111 µM
same,IC50,K562,123 µM
